Data published in ChEMBL document CHEMBL4354878, “Structure-Based Bioisosterism Yields HIV-1 NNRTIs with Improved Drug-Resistance Profiles and Favorable Pharmacokinetic Properties” (J Med Chem, 2020).

How the values were obtained:
[1] = Selectivity index, ratio of CC50 for human MT4 cells to EC50 for antiviral activity against HIV1 3B infected in human MT4 cells
[2] = system: Human immunodeficiency virus 1; experiment: Antiviral activity against HIV1 expressing RT Y188L mutant infected in human MT4 cells assessed as protection against virus-induced cytopathic effect incubated for 5 days by MTT assay; type: functional, organism-based; details: Human immunodeficiency virus 1, MT4, 120 h
[3] = system: MT4; experiment: Cytotoxicity against human MT4 cells assessed as reduction in cell viability incubated for 5 days by MTT assay; type: functional; details: MT4, 120 h
[4] = system: Human immunodeficiency virus 1; experiment: Antiviral activity against HIV1 expressing RT L100I mutant infected in human MT4 cells assessed as protection against virus-induced cytopathic effect incubated for 5 days by MTT assay; type: functional, organism-based; details: Human immunodeficiency virus 1, MT4, 120 h
[5] = system: Human immunodeficiency virus 1; experiment: Antiviral activity against HIV1 3B infected in human MT4 cells assessed as protection against virus-induced cytopathic effect incubated for 5 days by MTT assay; type: functional, organism-based; details: Human immunodeficiency virus 1, 3B, MT4, 120 h
[6] = system: Human immunodeficiency virus 1; experiment: Antiviral activity against HIV1 RES056 infected in human MT4 cells assessed as protection against virus-induced cytopathic effect incubated for 5 days by MTT assay; type: functional, organism-based; details: Human immunodeficiency virus 1, RES056, MT4, 120 h
[7] = system: Human immunodeficiency virus 1; experiment: Antiviral activity against HIV1 expressing RT Y181C mutant infected in human MT4 cells assessed as protection against virus-induced cytopathic effect incubated for 5 days by MTT assay; type: functional, organism-based; details: Human immunodeficiency virus 1, MT4, 120 h
[8] = system: Human immunodeficiency virus 1; experiment: Antiviral activity against HIV1 expressing RT K103N mutant infected in human MT4 cells assessed as protection against virus-induced cytopathic effect incubated for 5 days by MTT assay; type: functional, organism-based; details: Human immunodeficiency virus 1, MT4, 120 h
[9] = Selectivity index, ratio of CC50 for human MT4 cells to EC50 for antiviral activity against HIV1 RES056 infected in human MT4 cells
[10] = system: Human immunodeficiency virus 1; type: functional, organism-based; details: Human immunodeficiency virus 1, MT4, 120 h
[11] = system: Human immunodeficiency virus 1; experiment: Antiviral activity against HIV1 expressing RT E138K mutant infected in human MT4 cells assessed as protection against virus-induced cytopathic effect incubated for 5 days by MTT assay; type: functional, organism-based; details: Human immunodeficiency virus 1, MT4, 120 h
[12] = molecular target: Human immunodeficiency virus type 1 reverse transcriptase (Human immunodeficiency virus 1, UniProt Q72547, E138K); experiment: Inhibition of HIV1 RT E138K mutant in presence of reconstituted template and viral nucleotides [digoxigenin (DIG)-dUTP, biotin-dUTP and dTTP] incubated for 1 hr by ELISA method
[13] = system: Human immunodeficiency virus 1; experiment: Antiviral activity against HIV1 3B infected in human MT4 cells grown under 30 passages in presence of (E)-4-((4-((4-(4-(2-Cyanovinyl)-2,6-dimethylphenoxy)thieno[2,3- d]pyrimidin-2-yl)amino)piperidin-1-yl)methyl)benzenesulfonamide assessed as protection against virus-induced cytopathic effect incubated for 5 days by MTT assay; type: functional, organism-based; details: Human immunodeficiency virus 1, 3B, MT4, 120 h
[14] = system: Human immunodeficiency virus 1; experiment: Antiviral activity against HIV1 3B infected in human MT4 cells grown under 30 passages in presence of 4-[[4-[[4-(4-cyano-2,6-dimethylphenoxy)thieno[3,2-d]pyrimidin-2-yl]amino]-1-piperidyl]methyl]benzenesulfonamide assessed as protection against virus-induced cytopathic effect incubated for 5 days by MTT assay; type: functional, organism-based; details: Human immunodeficiency virus 1, 3B, MT4, 120 h
[15] = system: Human immunodeficiency virus 1; experiment: Antiviral activity against HIV1 3B infected in human MT4 cells grown under 30 passages in absence of test compound assessed as protection against virus-induced cytopathic effect incubated for 5 days by MTT assay; type: functional, organism-based; details: Human immunodeficiency virus 1, 3B, MT4, 120 h
[16] = Toxicity in Kunming mouse assessed as induction of toxic symptoms at 2000 mg/kg, ig measured 2 hrs post dose and then measured every 48 hrs for 14 days; type: organism-based; details: in vivo, po
[17] = molecular target: Human immunodeficiency virus type 1 reverse transcriptase (Human immunodeficiency virus 1, UniProt Q72547, K103N); experiment: Inhibition of HIV1 RT K103N mutant in presence of reconstituted template and viral nucleotides [digoxigenin (DIG)-dUTP, biotin-dUTP and dTTP] incubated for 1 hr by ELISA method
[18] = molecular target: Human immunodeficiency virus type 1 reverse transcriptase (Human immunodeficiency virus 1, UniProt Q72547, Y188L); experiment: Inhibition of HIV1 RT Y188L mutant in presence of reconstituted template and viral nucleotides [digoxigenin (DIG)-dUTP, biotin-dUTP and dTTP] incubated for 1 hr by ELISA method
[19] = system: Human immunodeficiency virus 1; experiment: Antiviral activity against HIV1 3B infected in human MT4 cells grown under 30 passages in presence of 4-[[4-[[4-[4-[2-cyanovinyl]-2,6-dimethylphenoxy]thieno[3,2-d]pyrimidin-2-yl]amino]-1-piperidyl]methyl]benzenesulfonamide assessed as protection against virus-induced cytopathic effect incubated for 5 days by MTT assay; type: functional, organism-based; details: Human immunodeficiency virus 1, 3B, MT4, 120 h
[20] = Toxicity in Kunming mouse assessed as induction of abnormal behaviors at 2000 mg/kg, ig measured 2 hrs post dose and then measured every 48 hrs for 14 days; type: organism-based; details: in vivo, po
[21] = molecular target: Human immunodeficiency virus type 1 reverse transcriptase (Human immunodeficiency virus 1, UniProt Q72547, Y181C); experiment: Inhibition of HIV1 RT Y181C mutant in presence of reconstituted template and viral nucleotides [digoxigenin (DIG)-dUTP, biotin-dUTP and dTTP] incubated for 1 hr by ELISA method
[22] = Toxicity in Kunming mouse assessed as induction of body weight changes at 2000 mg/kg, ig measured 2 hrs post dose and then measured every 48 hrs for 14 days; type: organism-based; details: in vivo, po
[23] = molecular target: Human immunodeficiency virus type 1 reverse transcriptase (Human immunodeficiency virus 1, UniProt Q72547, K103N/Y181C); experiment: Inhibition of HIV1 RT K103N/Y181C mutant in presence of reconstituted template and viral nucleotides [digoxigenin (DIG)-dUTP, biotin-dUTP and dTTP] incubated for 1 hr by ELISA method
[24] = molecular target: Human immunodeficiency virus type 1 reverse transcriptase (Human immunodeficiency virus 1, UniProt Q72547); experiment: Inhibition of HIV1 RT in presence of reconstituted template and viral nucleotides [digoxigenin (DIG)-dUTP, biotin-dUTP and dTTP] incubated for 1 hr by ELISA method
[25] = Toxicity in Kunming mouse assessed as induction of mortality at 2000 mg/kg, ig measured 2 hrs post dose and then measured every 48 hrs for 14 days; type: organism-based; details: in vivo, po
[26] = molecular target: Human immunodeficiency virus type 1 reverse transcriptase (Human immunodeficiency virus 1, UniProt Q72547, L100I); experiment: Inhibition of HIV1 RT L100I mutant in presence of reconstituted template and viral nucleotides [digoxigenin (DIG)-dUTP, biotin-dUTP and dTTP] incubated for 1 hr by ELISA method

SMILES | selectivity ratio [1] | EC50 [2] [nM] | CC50 [3] [nM] | EC50 [4] [nM] | EC50 [5] [nM] | EC50 [6] [nM] | EC50 [7] [nM] | EC50 [8] [nM] | selectivity ratio [9] | EC50 [10] [nM] | EC50 [11] [nM] | IC50 [12] [nM] | EC50 [13] [nM] | EC50 [14] [nM] | EC50 [15] [nM] | IC50 [17] [nM] | IC50 [18] [nM] | EC50 [19] [nM] | IC50 [21] [nM] | IC50 [23] [nM] | further results
Cc1cc(/C=C/C#N)cc(C)c1Oc1nc(NC2CCN(Cc3ccc(C(N)=O)cc3)CC2)nc2sccc12 | 597 | 27.1 | 3540 | 6.11 | 5.92 | 66.9 | 12.8 | 4.99 | 53 | 15.1 | 9.24 |  |  |  |  |  |  |  |  |  | 
Cc1cc(/C=C/C#N)cc(C)c1Oc1nc(NC2CCN(Cc3ccc(S(N)(=O)=O)cc3)CC2)nc2sccc12 |  | 7.59 |  | 2.05 | 3.24 | 6.45 | 6.57 | 2.34 |  | 4.81 | 6.7 | 374 | 3600 | 1780 | 4.1 | 222 | 452 | 870 | 141 | 120 | Activity [16]: Non-Toxic; Activity [20]: Non-Toxic; Activity [22]: Non-Toxic; IC50 [24]: 114 nM; Activity [25]: Non-Toxic
Cc1cc(/C=C/C#N)cc(C)c1Oc1nc(NC2CCN(Cc3ccc(F)cc3)CC2)nc2sccc12 | 279 | 152 | 5840 | 30.4 | 19.7 | 150 | 36.3 | 22.6 | 39 | 127 | 123 |  |  |  |  |  |  |  |  |  | 
Cc1cc(/C=C/C#N)cc(C)c1Oc1nc(NC2CCN(Cc3cccc(C(N)=O)c3)CC2)nc2sccc12 | 689 | 39.5 | 3950 | 5.75 | 5.73 | 62 | 17.7 | 5.45 | 64 | 12.2 | 18.4 |  |  |  |  |  |  |  |  |  | 
Cc1cc(C#N)cc(C)c1Oc1nc(NC2CCN(Cc3ccc(S(N)(=O)=O)cc3)CC2)nc2ccsc12 |  |  |  |  |  |  |  |  |  |  |  | 200 | > 36400 | > 36400 | 1.1 | 162 | 215 | > 36400 | 126 | 71 | IC50 [26]: 92 nM; IC50 [24]: 76 nM
CCOC(=O)c1ccc(CN2CCC(Nc3nc(Oc4c(C)cc(/C=C/C#N)cc4C)c4ccsc4n3)CC2)cc1 | 10500 | 120 | 111000 | 19.4 | 10.6 | 153 | 30.9 | 12 | 728 | 32.1 | 33.1 |  |  |  |  |  |  |  |  |  | 
